The values below come from patent US20220386863A1, “SMART CONTACT LENS FOR DIAGNOSIS AND TREATMENT OF DRY EYE SYNDROME” (priority 2020, published 2022).

In this assay the test system is anti-VEGF aptamer. To be noted: for change in current on injection of VEGF: FET sensor with anti-VEGF aptamer, PBS base current, FIG. 2A. An excerpt:
Electrodes using a gold thin film and silver nanowires were patterned on a silicon substrate using a photolithography method, and a semi-conductive layer was placed between the electrodes. In this case, silver nanowires were used as a material of the semi-conductive layer. Thereafter, an aptamer (anti-VEGF aptamer) capable of being coupled to a dry eye syndrome biomarker was coupled to the semi-conductive layer.
Specifically, a silver nanowire channel was immersed in an 3-aminopropyldimethyl-ethoxysilane (APDES)/ethanol solution to introduce an amine group, and the silver nanowire channel was immersed in a sodium carbonate buffer including 1 wt % succinic anhydride to substitute the amine group with a carboxyl group. Then, after the silver nanowire channel is immersed in a phosphate buffered saline (PBS) solution, 1-ethyl-3(3-dimethyl aminopropyl)carbodiimide hydro-chloride (EDC) and sulfa N-hydroxysuccinimide (sulfa-NHS) were added to form an amide group. An aptamer solution was introduced into the channel, into which the amide group was introduced, to couple the channel and the probe. ?
A VEGF was injected into the sensor in real time to monitor an intensity of a current flowing in the silver nanowire channel.
Specifically, 200 μL of PBS was dropped onto the FET sensor to set a base current for 30 minutes, and then, a change in current generated by injecting a specific concentration of a VEGF was observed. ?

Read-outs that look alike come from different tables or passages of the source.

For “vascular endothelial growth factor [VEGF]”, the “change in current on injection of VEGF” value was “no difference in current” (104 pM VEGF injected), “large change” (1.04 nM VEGF injected) and “large change” (52 nM VEGF injected). For the setting “compared with the initial base current, FIG. 2B”, the “stabilized current after VEGF injection, averaged per section” value is “higher than an initial base current”.
